Patent US10093642B2, “Multitarget hedgehog pathway inhibitors and uses thereof” (UNIVERSITA' DEGLI STUDI DI SIENA, priority 2013, dated 2018)
Each block holds one molecule with its values, some of them ahead of it.

Experiments:
[1] = tested on: Hh pathway (Gli-RE reporter, activated by SMO agonist SAG); experiment: Gli-luciferase reporter assay in SAG-treated NIH 3T3 Shh-light II cells; type: cell-based; conditions: for effect on Hh pathway in luciferase assay: Gli1 gene reporter, pathway activated by SAG, cyclopamine as reference; for activity as Hh inhibitor in luciferase assay (classification): pharmacophore screening hits; for Hh inhibitory activity compared with Glabrescione B: 5 μM, Shh Light II cells, preliminary results
Protocol: FIG. 4. Effect of active natural compounds identified by the pharmacophore screening in a luciferase assay, where the gene reporter was Gli1 and the pathway was activated by the SAG molecule, a potent SMO agonist. Natural compounds were tested at three different concentrations (1, 10 and 20 μM) and their activity was compared to that of cyclopamine, the natural compound reference inhibitor of the Hedgehog pathway, which was tested at the same doses (1, 10 and 20 μM). On both graphs the activity of cyclopamine is reported as reference standard. (A) cyclopamine, 2,4,5,3′,4′-penta-Ome chalcone and Auriculasin; (B) cyclopamine, Martinoside, Jaceidin, 2,4,5,3′,4′-penta-Ome chalcone, 3,4-di-MDO-2′,4′,5′-tri-Ome dihydrochalcone.
FIG. 6. Dose-response curve of Glabrescione B in SAG (Smoothened Agonist, 200 nM) treated NIH 3T3 Shh-light II (Shh-LII) cells. Treatment time was 48 h and normalization was against Renilla luciferase. Shown is the fold increase of Hh reporter activity compared with cells not treated with SAG.
FIG. 19. Effect of derivatives NT8, NT9, NT10, NT11, NT12, NT13, NT14 and NT15 on the Hedgehog pathway, measured at 5 μM dose in a luciferase assay where the gene reporter was Gli1 and the pathway was activated by the SAG molecule, a potent SMO agonist. […]
To investigate the inhibitory properties of Glabrescione B on Hh signaling, the inventors examined its effects in NIH 3T3 Shh-light II (Shh-LII) cells stably incorporating an Hh-responsive (Gli-RE) reporter, in which induction of the pathway occurs following treatment with the SMO agonist SAG. […] The IC50 in this assay was 0.8 μM.
The ability of Glabrescione B to suppress Hh signaling was assessed in a cellular context of Hh pathway induction. To this end, the antagonist properties of Glabrescione B were determined in Shh Light II (ATCC, cat. # CRL-2795), a murine fibroblast NIH 3T3 cell line. These cells, stably incorporating the Gli-luc reporter and the pRL-TK Renilla reniformis (as described in Taipale, Chen et al. 2000) are a standard tool used to assay Hh pathway activity. The cells that reached the confluence were treated for 48 h with the SMO agonist SAG (200 nM, Alexis, cat. #ALX-270-426-M001) in absence or in presence of Glabrescione B at the amount indicated in FIG. 6. […] Control cells were treated with only DMSO (0.5%, SERVA, cat. #39757.02) Determination of luciferase activities was carried out using the Dual-Luciferase assay according to manufacturer's instructions (Dual-Luciferase® Reporter assay system; Promega, cat. # E1980). All presented data are firefly luciferase activity reported to the Renilla control activity. […] IC50 of 0.8 μM, represents the concentration of Glabrescione B necessary to have fifty percent of inhibition.
Evaluation of the Hh inhibitory activity of these molecules at 5 μM was preliminarily conducted in vitro on Shh Light II cells (see example 2).

[2] = tested on: Hh pathway (Gli-RE reporter, activated by SMO agonist SAG); experiment: as above; type: cell-based; conditions: Mus musculus, moderately active class
SMO heptahelical domain = SMO heptahelical domain (Homo sapiens, UniProt Q99835); conditions: cited from earlier work
Chain of SMO heptahelical domain (Q99835 28-787): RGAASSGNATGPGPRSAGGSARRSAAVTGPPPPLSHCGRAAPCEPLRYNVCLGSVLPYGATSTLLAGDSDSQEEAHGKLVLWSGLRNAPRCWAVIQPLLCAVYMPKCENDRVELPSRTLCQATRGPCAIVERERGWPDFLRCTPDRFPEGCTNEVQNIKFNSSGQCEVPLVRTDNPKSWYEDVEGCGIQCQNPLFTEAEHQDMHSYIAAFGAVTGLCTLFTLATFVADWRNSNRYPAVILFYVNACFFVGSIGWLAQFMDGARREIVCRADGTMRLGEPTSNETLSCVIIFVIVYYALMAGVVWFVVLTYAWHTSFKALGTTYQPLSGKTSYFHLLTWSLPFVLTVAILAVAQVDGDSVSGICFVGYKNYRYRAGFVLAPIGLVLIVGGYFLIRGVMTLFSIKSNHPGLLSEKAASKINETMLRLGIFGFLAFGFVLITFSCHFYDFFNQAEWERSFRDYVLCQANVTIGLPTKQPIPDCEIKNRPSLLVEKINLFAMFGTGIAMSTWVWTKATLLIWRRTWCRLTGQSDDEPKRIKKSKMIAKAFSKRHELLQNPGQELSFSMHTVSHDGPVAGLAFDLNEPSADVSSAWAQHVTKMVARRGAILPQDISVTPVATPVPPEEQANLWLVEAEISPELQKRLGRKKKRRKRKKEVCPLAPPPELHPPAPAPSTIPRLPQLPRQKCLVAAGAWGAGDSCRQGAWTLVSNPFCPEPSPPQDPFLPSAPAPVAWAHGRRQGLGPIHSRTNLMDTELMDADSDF

Molecule: COc1ccc(C(=O)C=Cc2c(OC)cc(OC)c(OC)c2OC)cc1OC [2,3,4,6,3′,4′-hexa-OMe Chalcone]
effect on Hh pathway in luciferase assay [1]: inhibit the Hh pathway

Molecule: COc1cc(OC)c(OC)cc1C=CC(=O)c1ccc(OC)c(OC)c1 [2,4,5,3′,4′-penta-OMe Chalcone]
effect on Hh pathway in luciferase assay [1]: inhibit the Hh pathway

Molecule: COc1cc(OC)c(C(=O)CCc2ccc3c(c2)OCO3)cc1OC [3,4-di-MDO-2′,4′,5′-tri-OMe dihydrochalcone]
effect on Hh pathway in luciferase assay [1]: inhibit the Hh pathway

Molecule: CC(C)=CCc1c2c(c(O)c3c(=O)c(-c4ccc(O)c(O)c4)coc13)C=CC(C)(C)O2 [Auriculasin]
effect on Hh pathway in luciferase assay [1]: inhibit the Hh pathway
inhibition at 30 µM [2]: ≤ 30%

Molecule: C[C@@H]1CC[C@]2(C(=O)O)CC[C@]3(C)C(=CC[C@@H]4[C@@]5(C)CC[C@@H](O)[C@](C)(CO)[C@@H]5CC[C@]43C)[C@@H]2[C@]1(C)O [Barbinervic Acid]
activity as Hh inhibitor in luciferase assay (classification) [1]: not active

Molecule: COc1ccc([C@@H]2CC(=O)c3c(O)cc(O[C@@H]4O[C@H](CO[C@@H]5O[C@@H](C)[C@H](O)[C@@H](O)[C@H]5O)[C@@H](O)[C@H](O)[C@H]4O)cc3O2)cc1O [Hesperidin]
activity as Hh inhibitor in luciferase assay (classification) [1]: not active

Molecule: COc1cc(-c2oc3cc(O)c(OC)c(O)c3c(=O)c2OC)ccc1O [Jaceidin]
effect on Hh pathway in luciferase assay [1]: inhibit the Hh pathway

Molecule: CC(C)=CCc1c(O)ccc(C(=O)C2C(c3c(O)cc(/C=C/c4ccc(O)cc4O)cc3O)C=C(C)CC2c2ccc(O)cc2O)c1O (stereo not drawn) [Kuwanol-E]
activity as Hh inhibitor in luciferase assay (classification) [1]: not active

Molecule: COc1ccc(CCO[C@@H]2O[C@H](CO)[C@@H](OC(=O)/C=C/c3ccc(O)c(OC)c3)[C@H](O[C@@H]3O[C@@H](C)[C@H](O)[C@@H](O)[C@H]3O)[C@H]2O)cc1O [Martinoside]
effect on Hh pathway in luciferase assay [1]: inhibit the Hh pathway

Molecule: O=c1c(O)c(-c2cc(O)c(O)c(O)c2)oc2cc(O)cc(O)c12 [Myricetin]
activity as Hh inhibitor in luciferase assay (classification) [1]: not active

Molecule: COc1cc(OC)c2c(=O)c(-c3ccc(OC)c(OCC=C(C)C)c3)coc2c1 [NT8, 3-[3′-(3-methyl-but-2-enyloxy)-4′-methoxyphenyl]-5,7-dimethoxy-4H-chromen-4-one]
Hh inhibitory activity compared with Glabrescione B [1]: more potent than Glabrescione B

melting point: 126 °C
Molecule: COc1cc(OC)c2c(=O)c(-c3ccc(OC)c(OCc4ccccc4)c3)coc2c1 [NT9, 3-(3′-Benzyloxy-4′-methoxyphenyl)-5,7-dimethoxy-4H-chromen-4-one]
Hh inhibitory activity compared with Glabrescione B [1]: more potent than Glabrescione B

melting point: 128.6 to 129.1 °C
Molecule: COc1cc(OC)c2c(=O)c(-c3ccc(OC)c(OCc4ccc(C(F)(F)F)cc4)c3)coc2c1 [NT11, 5,7-Dimethoxy-3-[4-methoxy-3-(4-trifluoromethyl-benzyloxy)-phenyl]-chromen-4-one]

melting point: 130.7 to 131.8 °C
Molecule: COc1cc(OC)c2c(=O)c(-c3ccc(OCC=C(C)C)c(OC)c3)coc2c1 [NT12, 5,7-Dimethoxy-3-[3′-methoxy-4′-(3-methyl-but-2-enyloxy)-phenyl]-chromen-4-one]

melting point: 142.8 to 143.7 °C
Molecule: COc1cc(OC)c2c(=O)c(-c3ccc(OCc4ccccc4)c(OC)c3)coc2c1 [NT13, 3-(4-Benzyloxy-3-methoxy-phenyl)-5,7-dimethoxy-chromen-4-one]

melting point: 128.4 to 130.2 °C
Molecule: COc1cc(OC)c2c(=O)c(-c3ccc(OCc4ccc(C(F)(F)F)cc4)c(OC)c3)coc2c1 [NT15, 5,7-Dimethoxy-3-[3-methoxy-4-(4-trifluoromethyl-benzyloxy)-phenyl]-chromen-4-one]

Molecule: C[C@@H]1O[C@@H](O[C@H]2[C@H](Oc3cc(O)c4c(c3)O[C@H](c3ccc(O)cc3)CC4=O)O[C@H](CO)[C@@H](O)[C@@H]2O)[C@H](O)[C@H](O)[C@H]1O [Naringin]
activity as Hh inhibitor in luciferase assay (classification) [1]: not active

Molecule: CNC1CCC(N(Cc2cccc(-c3ccncc3)c2)C(=O)c2sc3ccccc3c2Cl)CC1 (stereo not drawn) [SAG]
Kd (SMO heptahelical domain): 0.059 µM

Molecule: CC1=CC2c3c(O)cc(/C=C/c4ccc(O)cc4O)cc3OC3(c4ccc(O)c5c4OC(C)(C)C=C5)Oc4cc(O)ccc4C(C1)C23 (stereo not drawn) [Sorocein-A]
activity as Hh inhibitor in luciferase assay (classification) [1]: not active

Molecule: CC1=CC2c3c(ccc(C(=O)/C=C/c4ccc(O)cc4O)c3O)OC3(c4ccc(O)c5c4OC(C)(C)C=C5)Oc4cc(O)ccc4C(C1)C23 (stereo not drawn) [Sorocein-B]
activity as Hh inhibitor in luciferase assay (classification) [1]: not active

Molecule: Isosophoranon
activity as Hh inhibitor in luciferase assay (classification) [1]: not active

Molecule: Veratrin
activity as Hh inhibitor in luciferase assay (classification) [1]: not active
